Reference: patent US11141410B2 (MERCK SHARP & DOHME CORP., priority 2015, dated 2021)

Assays:
MRSA COL (MB5393) [1] = experiment: TarO Inhibitor/β-Lactam Synergy Assay (growth, OD600); type: cell-based; conditions: Staphylococcus aureus, TarO inhibitor alone, >200 μM = 95% growth inhibition not achieved, 20 hours at 37° C., read-out: MITC95 TarO inhibitor alone, Bacteria: SA_MB5393
MRSA COL (MB5393) [2] = experiment: as above; type: cell-based, Staphylococcus aureus; conditions: for MITC95 TarO inhibitor + 4 μg/mL IPM; Bacteria: SA_MB5393: in combination with 4 μg/mL imipenem (IPM); for MITC95 TarO inhibitor + 8 μg/mL DCX; Bacteria: SA_MB5393: in combination with 8 μg/mL dicloxacillin (DCX)
Experimental: The TarO inhibitor/β-lactam synergy assay was performed to measure the re-sensitization of methicillin-resistant Staphylococci bacteria (MB5393: MRSA COL) to β-lactam antibiotics by TarO inhibitors. MRSA COL is a hospital-acquired penicillinase-negative clinically isolated strain commonly used in Staphylococcus aureus studies and is fully resistant to the antimicrobial bioactivity of β-lactam antibiotics, including but not limited to imipenem and dicloxacillin. […] MRSA COL is fully refractory to β-lactam antibiotic effect at the current clinical breakpoint concentrations and as such MRSA COL is fully viable at these concentrations.
The β-lactam antibiotic concentration was fixed at the clinical breakpoint (imipenem 4 μg/ml or dicloxacillin 8 μg/ml) and the TarO inhibitors were titrated by 2 fold starting from the highest concentration of 200 μM with final DMSO concentration of 2% in the assay. 5×10^5 colony forming unit of MRSA COL in cation-adjusted Mueller Hinton broth (CAMHB) was then mixed and the assay plate was incubated for 20 hours at 37° C. without shaking. After 20 hours, the optical density at 600 nm (OD600) was read for all wells to determine relative growth of MRSA COL.

Structure (SMILES)	IC95 (MRSA COL (MB5393) [1]) [µM]	MITC95 TarO inhibitor + 4 μg/mL IPM; Bacteria: SA_MB5393 (MRSA COL (MB5393) [2]) [µM]	MITC95 TarO inhibitor + 8 μg/mL DCX; Bacteria: SA_MB5393 (MRSA COL (MB5393) [2]) [µM]
Cc1nc(C(C)C)sc1CNC(=O)N1C(=O)O[C@H](c2cc(F)cc(C(F)(F)F)c2)[C@@H]1C [Example 20, (4S,5R)-5-[3-fluoro-5-(trifluoromethyl)phenyl]-4-methyl-N-{[4-methyl-2-(1-methylethyl)-1,3-thiazol-5-yl]methyl}-2-oxo-1,3-oxazolidine-3-carboxamide]	> 200	0.43	3.65
C[C@H]1[C@@H](c2cc(F)cc(C(F)(F)F)c2)OC(=O)N1C(=O)NCc1ccccc1Cl [Example 21, (4S,5R)-N-(2-chlorobenzyl)-5-[3-fluoro-5-(trifluoromethyl)phenyl]-4-methyl-2-oxo-1,3-oxazolidine-3-carboxamide]	> 200	0.16	1.73
C[C@H]1[C@@H](c2cc(F)cc(C(F)(F)F)c2)OC(=O)N1C(=O)NCc1cccc2nccnc12 [Example 22, (4S,5R)-5-[3-fluoro-5-(trifluoromethyl)phenyl]-4-methyl-2-oxo-N-(quinoxalin-5-ylmethyl)-1,3-oxazolidine-3-carboxamide]	> 200	0.49	6.25
C[C@H]1[C@@H](c2cc(F)cc(C(F)(F)F)c2)OC(=O)N1C(=O)NCc1ccnc2ccccc12 [Example 23, (4S,5R)-5-[3-fluoro-5-(trifluoromethyl)phenyl]-4-methyl-2-oxo-N-(quinolin-4-ylmethyl)-1,3-oxazolidine-3-carboxamide]	> 200	0.61	4.84
COc1ccccc1CNC(=O)N1C(=O)O[C@H](c2cccc(C(F)(F)F)c2)[C@@H]1C [Example 24, (4S,5R)-N-(2-methoxybenzyl)-4-methyl-2-oxo-5-[3-(trifluoromethyl)phenyl]-1,3-oxazolidine-3-carboxamide]	> 200	0.20	7.29
C[C@H]1[C@@H](c2cc(F)cc(Br)c2)OC(=O)N1C(=O)NCc1cncc2ccccc12 [Example 25, (4S,5R)-5-(3-bromo-5-fluorophenyl)-N-(isoquinolin-4-ylmethyl)-4-methyl-2-oxo-1,3-oxazolidine-3-carboxamide]	> 200	0.22	1.38
C[C@H]1[C@@H](c2cc(F)cc(C3CC3)c2)OC(=O)N1C(=O)NCc1cncc2ccccc12 [Example 26, (4S,5R)-5-(3-cyclopropyl-5-fluorophenyl)-N-(isoquinolin-4-ylmethyl)-4-methyl-2-oxo-1,3-oxazolidine-3-carboxamide]	> 200	0.25	0.99
C[C@H]1[C@@H](c2cccc(C(C)(F)F)c2)OC(=O)N1C(=O)NCc1cncc2ccccc12 [Example 27, (4S,5R)-5-[3-(1,1-difluoroethyl)phenyl]-N-(isoquinolin-4-ylmethyl)-4-methyl-2-oxo-1,3-oxazolidine-3-carboxamide]	> 200	0.39	3.65
C[C@H]1[C@@H](c2cc(C(F)(F)F)cc(C(F)(F)F)c2)OC(=O)N1C(=O)NCc1ncccc1Br [Example 28, (4S,5R)-5-[3,5-bis(trifluoromethyl)phenyl]-N-[(3-bromopyridin-2-yl)methyl]-4-methyl-2-oxo-1,3-oxazolidine-3-carboxamide]	> 200	0.70	4.69
Cc1nn(C)c(C)c1CNC(=O)N1C(=O)O[C@H](c2cc(F)cc(C(F)(F)F)c2)[C@@H]1C [Example 29, (4S,5R)-5-[3-fluoro-5-(trifluoromethyl)phenyl]-4-methyl-2-oxo-N-[(1,3,5-trimethyl-1H-pyrazol-4-yl)methyl]-1,3-oxazolidine-3-carboxamide]	> 200	0.78	5.21
C[C@H]1[C@@H](c2cc(F)cc(C(F)(F)F)c2)OC(=O)N1C(=O)NCc1cccc2cncnc12 [Example 30, (4S,5R)-5-[3-fluoro-5-(trifluoromethyl)phenyl]-4-methyl-2-oxo-N-(quinazolin-8-ylmethyl)-1,3-oxazolidine-3-carboxamide]	> 200	0.68	4.69
Cc1cccnc1CNC(=O)N1C(=O)O[C@H](c2cc(C(F)(F)F)cc(C(F)(F)F)c2)[C@@H]1C [Example 31, (4S,5R)-5-[3,5-bis(trifluoromethyl)phenyl]-4-methyl-N-[(3-methylpyridin-2-yl)methyl]-2-oxo-1,3-oxazolidine-3-carboxamide]	> 200	0.43	8.33
C[C@H]1[C@@H](c2cc(F)cc(C(F)(F)F)c2)OC(=O)N1C(=O)NCc1ccccc1-n1cccc1 [Example 32, (4S,5R)-5-[3-fluoro-5-(trifluoromethyl)phenyl]-4-methyl-2-oxo-N-[2-(1H-pyrrol-1-yl)benzyl]-1,3-oxazolidine-3-carboxamide]	> 200	0.59	4.69
C[C@H]1[C@@H](c2cccc(C(F)F)c2)OC(=O)N1C(=O)NCc1cncc2ccccc12 [Example 33, (4S,5R)-5-[3-(difluoromethyl)phenyl]-N-(isoquinolin-4-ylmethyl)-4-methyl-2-oxo-1,3-oxazolidine-3-carboxamide]	> 200	1.37	9.38
C[C@H]1[C@@H](c2cc(F)cc(C(F)(F)F)c2)OC(=O)N1C(=O)NCc1ccnc2cccnc12 [Example 34, (4S,5R)-5-[3-fluoro-5-(trifluoromethyl)phenyl]-4-methyl-N-(1,5-naphthyridin-4-ylmethyl)-2-oxo-1,3-oxazolidine-3-carboxamide]	> 200	1.95	14.06
